The text below walks through data of patent EP4620956A1, “PARP1 INHIBITORS” (Zhejiang Yangli Pharmaceutical Technology Co., Ltd., priority 2022, dated 2024).

The structures appear in SMILES notation.

In general, IC50 refers to the midpoint of a concentration-inhibition curve.

In one test the target is T1, PARP2 (Homo sapiens, UniProt Q9UGN5).
T1 construct: purchased BPS 80502
Nature of the test: Inhibition of PARP2 enzyme activity (chemiluminescence). The test is classed as biochemical.

The next test has as its target T2, PARP6 (Homo sapiens, UniProt Q2NL67).
T2 construct: purchased BPS 80506
Nature of the test: Inhibition of PARP6 enzyme activity (chemiluminescence). Type of test: biochemical.

Test [1] relates to MDA-MB-436 xenograft tumour. Nature of the test: Anti-tumour effect in MDA-MB-436 subcutaneous xenograft tumour mouse model. The test is classed as in vivo. Particulars: same dose, MDA-MB-436 xenograft mice. How it is done:
Example 4 was further verified in vivo. A subcutaneous xenograft tumour mouse model of the BRCA1-mutated MDA-MB-436 cell line was selected. Human breast cancer MDA-MB-436 cells (ATCC, HTB-130) were cultured in vitro in a monolayer, with the culture conditions of L-15 medium supplemented with 10% foetal bovine serum, 1% penicillin-streptomycin solution, and 0.01 mg/mL bovine insulin, and cultured at 37°C in a CO2-free incubator. The cells were routinely digested and passaged twice a week using trypsin-EDTA. When the cell confluency reached 80%-90%, the cells were harvested and counted, and 0.2 mL of 1 × 10^7 MDA-MB-436 cells were subcutaneously inoculated on the right back of each mouse (PBS : Matrigel = 1 : 1). When the mean tumour volume reached 152 mm^3, the mice were grouped for drug administration. The day of drug administration was set as Day 0. The tumour volume and the body weight of the mice were monitored twice a week, and the drug treatment lasted for 28 days.
The diameter of the tumour was measured with a vernier calliper. The tumour volume is calculated according to the following equation: V = 0.5a × b^2, where a and b represent the long and short diameters of the tumour, respectively. The tumour inhibition effect of the compound was evaluated by relative tumour shrinkage rate Reg%. Reg% reflects the rate of tumour volume reduction after treatment. Reg% = (V0-Vt)/V0×100%, where V0 is the tumour volume measured at the time of grouping for drug administration (i.e., d0), and Vt is the tumour volume measured at a certain time point.
The criteria for compound response in the mouse model were adapted from mRECIST (Modified Response Evaluation Criteria in Solid Tumours) (Gao et al, 2015), and are specifically defined as follows: [formula] • PR (Partial Response): BestResponse < −50% and BestAvgResponse < −20%; [formula] • SD (Stable Disease): BestResponse < 35% and BestAvgResponse < 30%; [formula] • PD (Progressive Disease): other cases; • ORR% is the sum of the proportions of Complete Response (CR) and Partial Response (PR).
Statistical analysis was performed using Prism software, including the mean value (Mean) and standard error of the mean (SEM) of the tumour volume at each time point for each group. For the statistical analysis of TV, the original TV data from each measurement were used to compare the differences between groups. Two-way ANOVA was applied to include the two factors, i.e., drug administration and time for analysis, followed by the Tukey's multiple comparisons test, wherein p < 0.05 was considered statistically significant.

The subject of another test is DLD-1 BRCA2^-/-. Nature of the test: Anti-proliferative activity (CellTiter-Glo, 7 days), DLD-1 BRCA2-/-. Type of test: cell-based, human. (ATP-based viability assays read luminescence as a measure of living cells.)
For a further test, the system named is DLD-1 WT. Nature of the test: Anti-proliferative activity (CellTiter-Glo, 7 days), DLD-1 WT. The test is classed as cell-based, human. How it is done:
The anti-proliferation experiment of the compounds on tumour cells adopted the most widely used ATP concentration-based detection method at present. MDA-MB-231 and MDA-MB-436 cell lines were obtained from ATCC, DLD-1 human colourectal adenocarcinoma epithelial cells and DLD-1 BRCA2^-/- cells were obtained from Horizon, and the cells were revived. After the cells were stable, the cells were collected. When the viable cell count exceeded 90%, 450-500 cells were seeded into a 384-well plate. The next day, the example compounds with serially diluted concentrations were added. Only buffer was added to the Max well, and 50 µM AZD2281 was added to the Min well. The plate was incubated for 7 days, and on the eighth day, CellTiter-Glo® reagent (Promega, G7573) was added. The plate was incubated at room temperature for 30 minutes, and the values were read on Envision (PE). The inhibition rate was calculated using the fluorescence values from the Max and Min wells, and the dose-response curve was fitted using the analysis software GraphPad Prism 5 to obtain the IC50 value of each compound for the enzyme activity.

The next test has as its system MDA-MB-436. Nature of the test: Anti-proliferative activity (CellTiter-Glo, 7 days), MDA-MB-436. Type of test: cell-based, human.
Another test has as its system A549 WT. Nature of the test: Cellular PARylation inhibition, high-content imaging, A549 WT. The test is classed as cell-based. Particulars: Homo sapiens, PARylation at the cellular level. How it is done: The inhibitory effect of the compounds on PARP1/PARP2 enzyme activity at the cellular level was detected using high-content imaging. A549 WT, PARP1-KO and PARP2-KO cell lines were established in-house, and the cells were revived. After the cells were stable, a sufficient number of cells were collected and 100 µL of the cell suspension was seeded into a 96-well plate. The next day, the example compounds with serially diluted concentrations were added. […] The plate was incubated for 1.5 hours (A549 WT and PARP2-KO cell lines) or 2 hours (PARP1-KO cell line). After removing the supernatant, 0.4 mM H2O2 was added and incubation was carried out for 10 minutes (A549 WT and PARP2-KO cell lines) or 1.5 mM H2O2 was added and incubation was carried out for 15 minutes (PARP1-KO cell line) to induce extensive cellular DNA damage. After removing the supernatant, the cells were fixed with 4% paraformaldehyde for 20 minutes, followed by treatment with 0.5% Triton X-100 for 20 minutes to increase the permeability of the cell membrane. After that, the cells were incubated with 3% BSA for 1 hour to prevent non-specific binding. […] The cell nuclei were stained for 30 minutes by adding 50 µL DAPI (invitrogen, R37606). After washing twice with PBS, images were acquired on OPERETTA CLS™ (PE) by scanning the cells under a 20x water objective lens in non-confocal mode, with 5 fields of view captured per well. […] The inhibition rate was calculated using the fluorescence values from the Max and Min wells, and the dose-response curve was fitted using the analysis software GraphPad Prism 5 to obtain the IC50 value of each compound for the enzyme activity.

T2 sequence (Q2NL67 whole entry): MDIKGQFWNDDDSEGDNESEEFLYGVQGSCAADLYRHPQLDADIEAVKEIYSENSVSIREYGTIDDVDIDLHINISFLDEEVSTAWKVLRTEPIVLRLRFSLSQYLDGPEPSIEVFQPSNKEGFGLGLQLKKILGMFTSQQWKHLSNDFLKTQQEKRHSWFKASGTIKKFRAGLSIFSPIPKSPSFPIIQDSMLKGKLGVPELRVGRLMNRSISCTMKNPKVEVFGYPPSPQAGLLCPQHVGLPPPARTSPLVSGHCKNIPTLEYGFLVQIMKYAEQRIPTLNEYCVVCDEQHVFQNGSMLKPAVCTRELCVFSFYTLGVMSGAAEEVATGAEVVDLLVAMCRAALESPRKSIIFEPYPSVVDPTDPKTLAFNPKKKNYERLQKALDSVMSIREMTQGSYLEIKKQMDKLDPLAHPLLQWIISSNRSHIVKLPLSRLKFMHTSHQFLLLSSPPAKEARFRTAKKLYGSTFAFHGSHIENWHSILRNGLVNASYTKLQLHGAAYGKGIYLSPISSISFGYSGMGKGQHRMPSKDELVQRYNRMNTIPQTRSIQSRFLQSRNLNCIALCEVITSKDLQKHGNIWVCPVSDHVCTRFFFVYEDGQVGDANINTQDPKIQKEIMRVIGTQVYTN
T1 sequence (Q9UGN5 whole entry): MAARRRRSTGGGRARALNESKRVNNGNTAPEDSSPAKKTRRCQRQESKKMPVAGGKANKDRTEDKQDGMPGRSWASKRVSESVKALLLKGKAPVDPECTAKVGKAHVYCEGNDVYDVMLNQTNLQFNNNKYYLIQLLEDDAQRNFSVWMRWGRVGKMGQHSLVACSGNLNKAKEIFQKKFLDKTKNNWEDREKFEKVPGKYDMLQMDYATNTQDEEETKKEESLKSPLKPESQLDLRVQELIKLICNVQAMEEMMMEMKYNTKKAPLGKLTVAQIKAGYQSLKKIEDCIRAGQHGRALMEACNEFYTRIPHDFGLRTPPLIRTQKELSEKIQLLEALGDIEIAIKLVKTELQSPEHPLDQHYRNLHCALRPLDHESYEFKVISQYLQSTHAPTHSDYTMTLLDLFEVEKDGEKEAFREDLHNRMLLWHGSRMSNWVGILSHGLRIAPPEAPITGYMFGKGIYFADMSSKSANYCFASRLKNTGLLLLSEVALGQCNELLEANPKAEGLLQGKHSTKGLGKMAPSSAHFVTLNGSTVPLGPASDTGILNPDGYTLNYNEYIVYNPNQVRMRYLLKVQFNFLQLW

Turning to `[2H]C([2H])([2H])NC(=O)c1ccc(N2CCN(Cc3cnc4c(N)c(CC)c(=O)[nH]c4c3)CC2)c(F)n1` [Example 4, 5-(4-((8-Amino-7-ethyl-6-oxo-5,6-dihydro-1,5-naphthyridin-3-yl)methyl)piperazin-1-yl)-6-fluoro-N-(methyl-d3)picolinamide], the IC50 against PARP2 is 18.6 nM; on PARP6 (enzyme activity), above 10000 nM; with DLD-1 BRCA2^-/- (Homo sapiens, DLD-1, 168 h, BRCA2-mutated, 7 days) it was 4.59 nM; in the test on DLD-1 WT (Homo sapiens, DLD-1, 168 h, BRCA2-normal, 7 days), above 10000 nM; in the test with MDA-MB-436 (Homo sapiens, MDA-MB-436, 168 h, BRCA1-mutated, 7 days, read-out: MDA-MB-436 IC50), 1.93 nM; in the test with A549 WT, 5.2 nM. The “PARP6 multiple vs PARP1” value on PARP6 (ratio relative to the PARP1 enzyme activity) is “∞”. Further, in test [1] (FIG. 3), the tumour regression entry is “promoted tumour regression”. Besides, in test [1] (treatment 28 days), the ORR was 60%. Further, the “BRCA2 mutation/WT selectivity fold” value in the test with DLD-1 BRCA2^-/- (DLD-1 WT vs DLD-1 BRCA2^-/-) is given as >2,178 fold. The “inhibition on cell proliferation at the highest concentration” value in the test on DLD-1 WT (BRCA2-normal DLD-1 cell line, 10 µM) was “no detectable inhibition”. Besides, the “BRCA1 mutation/WT selectivity fold” value in the test with MDA-MB-436 (MDA-MB-231 vs MDA-MB-436) is on record as >5,181 fold.
